Test results published in PMC7193450 (Asian Journal of Pharmaceutical Sciences, 2018).

Assays:
rat kidney slices = assay: In vitro uptake in rat kidney slices; format: in vitro ADME; details: for Effect on the uptake of cilastatin in rat kidney slices / Effect on the uptake of imipenem in rat kidney slices: inhibitor 200 µM; for Effect on the uptake of cilastatin in rat kidney slices: cilastatin 100 µM; for Effect on the uptake of imipenem in rat kidney slices: imipenem 100 µM; for Uptake in rat kidney slices at 37 °C compared with 4 °C: 100 µM
human OAT1 (hOAT1) = target: T1, human OAT1 (hOAT1) (Homo sapiens, UniProt Q4U2R8); assay: In vitro transporter uptake assay in hOAT1-HEK293 cells
T1 sequence (Q4U2R8 1-563): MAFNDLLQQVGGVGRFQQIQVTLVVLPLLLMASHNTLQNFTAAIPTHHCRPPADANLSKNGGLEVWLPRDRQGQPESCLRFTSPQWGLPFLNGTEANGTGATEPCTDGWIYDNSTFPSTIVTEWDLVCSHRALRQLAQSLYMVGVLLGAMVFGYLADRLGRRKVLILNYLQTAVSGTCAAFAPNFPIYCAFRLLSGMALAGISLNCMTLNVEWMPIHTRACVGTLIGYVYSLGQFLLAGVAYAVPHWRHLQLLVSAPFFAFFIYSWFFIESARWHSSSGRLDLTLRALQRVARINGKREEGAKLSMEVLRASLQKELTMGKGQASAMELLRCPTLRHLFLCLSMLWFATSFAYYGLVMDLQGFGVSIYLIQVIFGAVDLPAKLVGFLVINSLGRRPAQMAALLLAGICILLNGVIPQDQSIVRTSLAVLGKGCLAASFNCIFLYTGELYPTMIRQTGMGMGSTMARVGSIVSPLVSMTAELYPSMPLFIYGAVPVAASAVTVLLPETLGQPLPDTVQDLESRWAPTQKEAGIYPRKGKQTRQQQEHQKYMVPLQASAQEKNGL

OAT1 = target: T2, OAT1 (Homo sapiens, UniProt Q4U2R8); assay: as above; details: human, pH 7.4
T2 sequence (Q4U2R8 1-563): T1 sequence (Q4U2R8 1-563)

[1] = Pharmacokinetic interaction in vivo in rats; details: rat; for AUC(0-inf) / C0 / clearance / half-life: Wistar, plasma, iv; for AUC(0-inf) / C0 / clearance / half-life / Cumulative urinary excretion over 8 h, compared with alone group: 45 mg/kg; for AUC(0-inf): AUC0→∞; for clearance: CLP; for half-life: T1/2β; for Cumulative urinary excretion over 8 h, compared with alone group: with probenecid 100 mg/kg
human OAT3 (hOAT3) = target: T3, human OAT3 (hOAT3) (Homo sapiens, UniProt Q8TCC7); assay: In vitro transporter uptake assay in hOAT3-HEK293 cells; format: in vitro ADME; details: for Uptake in hOAT3-HEK293 cells compared with mock cells: 100 µM
T3 sequence (Q8TCC7 1-542): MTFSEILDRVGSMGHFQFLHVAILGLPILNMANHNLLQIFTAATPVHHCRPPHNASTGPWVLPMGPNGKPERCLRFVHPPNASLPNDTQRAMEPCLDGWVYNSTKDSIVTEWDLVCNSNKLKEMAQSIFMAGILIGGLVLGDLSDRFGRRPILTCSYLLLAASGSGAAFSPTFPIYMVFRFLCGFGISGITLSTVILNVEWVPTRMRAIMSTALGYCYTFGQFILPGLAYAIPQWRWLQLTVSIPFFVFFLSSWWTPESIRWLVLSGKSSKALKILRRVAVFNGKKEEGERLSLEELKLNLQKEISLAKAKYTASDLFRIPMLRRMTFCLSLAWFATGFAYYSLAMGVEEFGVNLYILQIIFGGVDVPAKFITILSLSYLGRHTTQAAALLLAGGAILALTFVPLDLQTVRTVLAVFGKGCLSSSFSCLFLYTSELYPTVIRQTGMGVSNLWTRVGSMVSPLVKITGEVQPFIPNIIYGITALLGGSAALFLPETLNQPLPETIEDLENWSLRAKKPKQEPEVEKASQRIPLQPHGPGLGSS

OAT3 = target: T4, OAT3 (Homo sapiens, UniProt Q8TCC7); assay: as above; format: in vitro ADME; details: human, HEK293 cells transfected with human OAT3 (hOAT3-HEK293), pH 7.4
T4 sequence (Q8TCC7 1-542): T3 sequence (Q8TCC7 1-542)

[2] = substrate: CC1(C)C[C@@H]1C(=O)N/C(=C\CCCCSC[C@H](N)C(=O)O)C(=O)O; assay: cells, lysate or membranes named; details: other: hOAT3-HEK293 cells, alone, 1 min uptake, 0–2000 µM; pH 7.4; 37.0 °C
[3] = imipenem 100 µM, cilastatin 0–2000 µM, Eadie–Hofstee plot
[4] = of imipenem, i.v., imipenem + cilastatin, 45 mg/kg for both
[5] = C0, rat, single administration (alone)
[6] = of cilastatin, i.v., cilastatin + imipenem, 45 mg/kg for both

CCCN(CCC)S(=O)(=O)c1ccc(C(=O)O)cc1 [probenecid, Probenecid]
Effect on the uptake of cilastatin in rat kidney slices (rat kidney slices): inhibited
Effect on the uptake of imipenem in rat kidney slices (rat kidney slices): inhibited

Nc1ccc(C(=O)NCC(=O)O)cc1 [PAH, p-aminohippurate]
Effect on the uptake of cilastatin in rat kidney slices (rat kidney slices): inhibited
Effect on the uptake of imipenem in rat kidney slices (rat kidney slices): inhibited

C[C@@H](O)[C@H]1C(=O)N2C(C(=O)O)=C(SCCN=CN)C[C@H]12 [Imipenem]
Uptake in hOAT1-HEK293 cells compared with mock cells (human OAT1 (hOAT1); 100 µM): significantly higher
Vmax (human OAT1 (hOAT1); hOAT1, alone): 0.223 ± 0.011 nmol/mg protein/min
Vmax (human OAT1 (hOAT1); hOAT1-HEK293 cells, alone, 1 min uptake, 0–2000 µM): 0.223 ± 0.011 nmol/mg protein/1 min
Inhibitory type on the uptake of cilastatin in hOAT1-HEK293 cells (human OAT1 (hOAT1); [3]): competitive
Km at 1 min (OAT1): 631 ± 30 µM
AUC(0-inf) [1, 4]: 92400 ng·h/mL
AUC(0-inf) ([1]; single administration (alone)): 34800 ng·h/mL
C0 ([1]; C0, of imipenem, i.v., imipenem + cilastatin, 45 mg/kg for both): 187 ± 13.5 µg/mL
C0 [1, 5]: 129 ± 2.6 µg/mL
clearance [1, 4]: 8.1 ± 0.4 mL/min/kg
clearance ([1]; single administration (alone)): 21.6 ± 0.4 mL/min/kg
half-life [1, 4]: 62 ± 1.4 min
half-life ([1]; single administration (alone)): 18.5 ± 2.8 min
Cumulative urinary excretion over 8 h, compared with alone group ([1]; i.v.): significantly decreased
Uptake in rat kidney slices at 37 °C compared with 4 °C (rat kidney slices): significantly higher
Uptake in hOAT3-HEK293 cells compared with mock cells (human OAT3 (hOAT3)): significantly higher
Vmax (human OAT3 (hOAT3); hOAT3, alone): 0.329 ± 0.036 nmol/mg protein/min
Vmax (human OAT3 (hOAT3); hOAT3-HEK293 cells, alone, 1 min uptake, 0–2000 µM): 0.329 ± 0.036 nmol/mg protein/1 min
Inhibitory type on the uptake of cilastatin in hOAT3-HEK293 cells (human OAT3 (hOAT3); [3]): competitive
Km at 1 min (OAT3): 759 ± 62 µM

CC1(C)C[C@@H]1C(=O)N/C(=C\CCCCSC[C@H](N)C(=O)O)C(=O)O [Cilastatin]
AUC(0-inf) [1, 6]: 84700 ng·h/mL
AUC(0-inf) ([1]; single administration (alone)): 56500 ng·h/mL
C0 ([1]; C0, of cilastatin, i.v., cilastatin + imipenem, 45 mg/kg for both): 175 ± 11.1 µg/mL
C0 [1, 5]: 156 ± 3.6 µg/mL
clearance [1, 6]: 8.9 ± 0.3 mL/min/kg
clearance ([1]; single administration (alone)): 13.3 ± 0.1 mL/min/kg
half-life [1, 6]: 28.6 ± 4 min
half-life ([1]; single administration (alone)): 19.7 ± 0.8 min
Cumulative urinary excretion over 8 h, compared with alone group ([1]; i.v.): significantly decreased
Cumulative urinary excretion of cilastatin, compared with cilastatin alone group ([1]; i.v., co-administered with imipenem, 45 mg/kg for both): decreased significantly
Uptake in rat kidney slices at 37 °C compared with 4 °C (rat kidney slices): significantly higher
Uptake in hOAT3-HEK293 cells compared with mock cells (human OAT3 (hOAT3)): significantly higher

CC[N+](CC)(CC)CC [TEA, tetraethyl ammonium]
Effect on the uptake of cilastatin in rat kidney slices (rat kidney slices): not TEA inhibited
Effect on the uptake of imipenem in rat kidney slices (rat kidney slices): not TEA inhibited

CC1(C)S[C@@H]2[C@H](NC(=O)Cc3ccccc3)C(=O)N2[C@H]1C(=O)O [PCG, benzylpenicillin]
Effect on the uptake of cilastatin in rat kidney slices (rat kidney slices): inhibited
Effect on the uptake of imipenem in rat kidney slices (rat kidney slices): inhibited
Effect on uptake of imipenem and cilastatin in hOAT3-HEK293 cells (human OAT3 (hOAT3); PCG 200 µM, imipenem 100 µM, cilastatin 100 µM): significantly inhibited

B1: human OAT3 (hOAT3) (Homo sapiens) (protein)
chain: T3 sequence (Q8TCC7 1-542)
Km [2]: 238 ± 2 µM
Vmax [2]: 0.000751 µmol/min/mg
